Assay results as given in patent publication US20250333406A1, “SULFONYL CYCLIC DERIVATIVES, AND COMPOSITIONS AND METHODS THEREOF” (Lysoway Therapeutics, Inc., priority 2023, published 2025).

Tested on: TFEB
Assay: TFEB Nuclear Translocation Assay
Type: cell-based
Details: read-out: EC50 of TFEB activation

EC50 [nM]	Compound
≤ 1000	CC(C)S(=O)(=O)c1ccc(S(=O)(=O)n2nc(N3CCN(c4ncc(F)cc4F)CC34CC4)c3c(Cl)cc(F)cc32)cc1 [Compound 27, 4-chloro-3-[7-(3,5-difluoro-2-pyridyl)-4,7-diazaspiro [2.5]octan-4-yl]-6-fluoro-1-(4-isopropylsulfonylphenyl)sulfonyl-indazole]
≤ 1000	CC(C)S(=O)(=O)c1ccc(S(=O)(=O)n2nc(N3CCN(c4ncc(F)cc4F)CC34CC4)c3c(F)cc(F)cc32)cc1 [Compound 28, 3-[7-(3,5-difluoro-2-pyridyl)-4,7-diazaspiro[2.5]octan-4-yl]-4,6-difluoro-1-(4-isopropylsulfonylphenyl)sulfonyl-indazole]
≤ 1000	O=S(=O)(c1ccc(S(=O)(=O)n2nc(N3CCN(c4ncc(F)cn4)CC34CC4)c3c(Cl)cccc32)cc1)C1CC1 [Compound 29, 4-chloro-1-((4-(cyclopropylsulfonyl)phenyl)sulfonyl)-3-(7-(5-fluoropyrimidin-2-yl)-4,7-diazaspiro [2.5]octan-4-yl)-1H-indazole]
≤ 1000	CC(C)S(=O)(=O)c1ccc(S(=O)(=O)n2nc(N3CCN(c4ncc(Cl)cc4F)CC34CC4)c3c(Cl)cccc32)s1 [Compound 30, 4-chloro-3-[7-(5-chloro-3-fluoro-2-pyridyl)-4,7-diazaspiro [2.5]octan-4-yl]-1-[(5-isopropylsulfonyl-2-thienyl)sulfonyl]indazole]
≤ 1000	CC(C)S(=O)(=O)c1ccc(S(=O)(=O)n2nc(N3CCN(c4ncc(F)cc4F)CC34CC4)c3c(Cl)ccc(F)c32)s1 [Compound 31, 4-chloro-3-(7-(3,5-difluoropyridin-2-yl)-4,7-diazaspiro [2.5]octan-4-yl)-7-fluoro-1-((5-(isopropylsulfonyl)thiophen-2-yl)sulfonyl)-1H-indazole]
≤ 1000	CC(C)S(=O)(=O)c1ccc(S(=O)(=O)n2nc(N3CCN(c4ncc(F)cc4F)CC34CC4)c3c(F)ccc(F)c32)s1 [Compound 32, 3-[7-(3,5-difluoro-2-pyridyl)-4,7-diazaspiro [2.5]octan-4-yl]-4,7-difluoro-1-[(5-isopropylsulfonyl-2-thienyl)sulfonyl]indazole]
≤ 1000	CC(C)S(=O)(=O)c1ccc(S(=O)(=O)n2nc(N3CCN(c4ncc(Cl)cc4F)CC34CC4)c3c(F)ccc(F)c32)s1 [Compound 33, 3-[7-(5-chloro-3-fluoro-2-pyridyl)-4,7-diazaspiro [2.5]octan-4-yl]-4,7-difluoro-1-[(5-isopropylsulfonyl-2-thienyl)sulfonyl]indazole]
≤ 1000	CC(C)S(=O)(=O)c1ccc(S(=O)(=O)n2nc(N3CCN(c4ncc(F)cn4)CC34CC4)c3c(F)ccc(F)c32)s1 [Compound 34, 4,7-difluoro-3-(7-(5-fluoropyrimidin-2-yl)-4,7-diazaspiro [2.5]octan-4-yl)-1-((5-(isopropylsulfonyl)thiophen-2-yl)sulfonyl)-1H-indazole]
≤ 1000	CC(C)S(=O)(=O)c1ccc(S(=O)(=O)n2nc(N3CCN(c4ncc(Cl)cc4F)CC34CC4)c3c(Cl)cc(F)cc32)s1 [Compound 35, 4-chloro-3-(7-(5-chloro-3-fluoropyridin-2-yl)-4,7-diazaspiro[2.5]octan-4-yl)-6-fluoro-1-((5-(isopropylsulfonyl)thiophen-2-yl)sulfonyl)-1H-indazole]
≤ 1000	CC(C)S(=O)(=O)c1ccc(S(=O)(=O)n2nc(N3CCN(c4ncc(Cl)cn4)CC34CC4)c3c(Cl)cc(F)cc32)s1 [Compound 36, 4-chloro-3-(7-(5-chloropyrimidin-2-yl)-4,7-diazaspiro [2.5]octan-4-yl)-6-fluoro-1-((5-(isopropylsulfonyl)thiophen-2-yl)sulfonyl)-1H-indazole]
≤ 1000	CC(C)S(=O)(=O)c1ccc(S(=O)(=O)n2nc(N3CCN(c4ncc(F)cc4F)CC34CC4)c3c(Cl)cc(F)cc32)s1 [Compound 37, 4-chloro-3-[7-(3,5-difluoro-2-pyridyl)-4,7-diazaspiro [2.5]octan-4-yl]-6-fluoro-1-[(5-isopropylsulfonyl-2-thienyl)sulfonyl]indazole]
≤ 1000	CC(C)S(=O)(=O)c1ccc(S(=O)(=O)n2nc(N3CCN(c4ncc(F)cn4)CC34CC4)c3c(Cl)cc(F)cc32)s1 [Compound 38, 4-chloro-6-fluoro-3-(7-(5-fluoropyrimidin-2-yl)-4,7-diazaspiro [2.5]octan-4-yl)-1-((5-(isopropylsulfonyl)thiophen-2-yl)sulfonyl)-1H-indazole]
≤ 1000	CC(C)S(=O)(=O)c1ccc(S(=O)(=O)n2nc(N3CCN(c4ncc(Cl)s4)CC34CC4)c3c(Cl)cc(F)cc32)s1 [Compound 39, 5-chloro-2-(4-(4-chloro-6-fluoro-1-((5-(isopropylsulfonyl)thiophen-2-yl)sulfonyl)-1H-indazol-3-yl)-4,7-diazaspiro [2.5]octan-7-yl) thiazole]
≤ 1000	CC(C)S(=O)(=O)c1ccc(S(=O)(=O)n2nc(N3CCN(c4ncc(F)cc4F)CC34CC4)c3c(F)cc(F)cc32)s1 [Compound 40, 3-(7-(3,5-difluoropyridin-2-yl)-4,7-diazaspiro [2.5]octan-4-yl)-4,6-difluoro-1-((5-(isopropylsulfonyl)thiophen-2-yl)sulfonyl)-1H-indazole]
≤ 1000	CC(C)S(=O)(=O)c1ccc(S(=O)(=O)n2nc(N3CCN(c4ccc(F)cn4)CC34CC4)c3c(Cl)cc(F)cc32)s1 [Compound 41, 4-chloro-6-fluoro-3-[7-(5-fluoro-2-pyridyl)-4,7-diazaspiro [2.5]octan-4-yl]-1-[(5-isopropylsulfonyl-2-thienyl)sulfonyl]indazole]
≤ 1000	CC(C)S(=O)(=O)c1ccc(S(=O)(=O)n2nc(N3CCN(c4ccc(F)cn4)CC34CC4)c3c(Cl)cccc32)s1 [Compound 42, 4-chloro-3-(7-(5-fluoropyridin-2-yl)-4,7-diazaspiro [2.5]octan-4-yl)-1-((5-(isopropylsulfonyl)thiophen-2-yl)sulfonyl)-1H-indazole]
≤ 1000	CC(C)S(=O)(=O)c1ccc(S(=O)(=O)n2nc(N3CCN(c4ncc(Cl)cn4)CC34CC4)c3c(Cl)cccc32)s1 [Compound 43, 4-chloro-3-[7-(5-chloropyrimidin-2-yl)-4,7-diazaspiro [2.5]octan-4-yl]-1-[(5-isopropylsulfonyl-2-thienyl)sulfonyl]indazole]
≤ 1000	CC(C)S(=O)(=O)c1ccc(S(=O)(=O)n2nc(N3CCN(c4ncc(F)cn4)CC34CC4)c3c(Cl)cccc32)s1 [Compound 44, 4-chloro-3-[7-(5-fluoropyrimidin-2-yl)-4,7-diazaspiro [2.5]octan-4-yl]-1-[(5-isopropylsulfonyl-2-thienyl)sulfonyl]indazole]
≤ 1000	CC(C)S(=O)(=O)c1ccc(S(=O)(=O)n2nc(N3CCN(c4ncc(F)cc4F)CC34CC4)c3c(Cl)cccc32)s1 [Compound 45, 4-chloro-3-[7-(3,5-difluoro-2-pyridyl)-4,7-diazaspiro [2.5]octan-4-yl]-1-[(5-isopropylsulfonyl-2-thienyl)sulfonyl]indazole]
≤ 1000	CC(C)S(=O)(=O)c1ccc(S(=O)(=O)n2nc(N3CCN(c4ncc(Cl)s4)CC34CC4)c3c(Cl)cccc32)s1 [Compound 46, 5-chloro-2-[4-[4-chloro-1-[(5-isopropylsulfonyl-2-thienyl)sulfonyl]indazol-3-yl]-4,7-diazaspiro [2.5]octan-7-yl]thiazole]
≤ 1000	CC(C)S(=O)(=O)c1ccc(S(=O)(=O)n2nc(N3CCN(c4ccc(Cl)cn4)CC34CC4)c3c(Cl)cccc32)s1 [Compound 47, 4-chloro-3-[7-(5-chloro-2-pyridyl)-4,7-diazaspiro[2.5]octan-4-yl]-1-[(5-isopropylsulfonyl-2-thienyl)sulfonyl]indazole]
≤ 1000	CC(C)(C)S(=O)(=O)c1ccc(S(=O)(=O)n2nc(N3CCN(c4ccc(F)cn4)CC34CC4)c3c(Cl)cccc32)s1 [Compound 48, 1-[(5-tert-butylsulfonyl-2-thienyl)sulfonyl]-4-chloro-3-[7-(5-fluoro-2-pyridyl)-4,7-diazaspiro [2.5]octan-4-yl]indazole]
≤ 1000	CC(C)(C)S(=O)(=O)c1ccc(S(=O)(=O)n2nc(N3CCN(c4ncc(F)cn4)CC34CC4)c3c(Cl)cccc32)s1 [Compound 49, 1-((5-(tert-butylsulfonyl)thiophen-2-yl)sulfonyl)-4-chloro-3-(7-(5-fluoropyrimidin-2-yl)-4,7-diazaspiro [2.5]octan-4-yl)-1H-indazole]
≤ 1000	CC(C)S(=O)(=O)c1ccc(S(=O)(=O)n2nc(N3CCN(c4ncc(F)cn4)CC3C3CC3)c3c(Cl)cccc32)cc1 (stereo not shown) [Compound 50, 4-chloro-3-(2-cyclopropyl-4-(5-fluoropyrimidin-2-yl)piperazin-1-yl)-1-((4-(isopropylsulfonyl)phenyl)sulfonyl)-1H-indazole]
≤ 1000	CC(C)S(=O)(=O)c1ccc(S(=O)(=O)n2nc(N3CCN(c4ncc(F)cn4)CC3C3CC3)c3c(Cl)cc(F)cc32)cc1 (stereo not shown) [Compound 51, 4-chloro-3-(2-cyclopropyl-4-(5-fluoropyrimidin-2-yl)piperazin-1-yl)-6-fluoro-1-((4-(isopropylsulfonyl)phenyl)sulfonyl)-1H-indazole]
≤ 1000	O=S(=O)(c1ccc(S(=O)(=O)C(F)(F)F)cc1)n1nc(N2CCN(c3ncc(F)cn3)CC23CC3)c2c(Cl)cccc21 [Compound 52, 4-chloro-3-(7-(5-fluoropyrimidin-2-yl)-4,7-diazaspiro [2.5]octan-4-yl)-1-((4-((trifluoromethyl)sulfonyl)phenyl)sulfonyl)-1H-indazole]
≤ 1000	CC(C)S(=O)(=O)c1ccc(S(=O)(=O)n2nc(N3CCC(F)(F)CC34CC4)c3c(Cl)cccc32)cc1 [Compound 53, 4-chloro-3-(7,7-difluoro-4-azaspiro [2.5]octan-4-yl)-1-(4-isopropylsulfonylphenyl) sulfonyl-indazole]
≤ 1000	CC(C)S(=O)(=O)c1ccc(S(=O)(=O)n2nc(N3CCC(Cl)(Cl)CC34CC4)c3c(Cl)cccc32)cc1 [Compound 54, 4-chloro-3-(7,7-dichloro-4-azaspiro [2.5]octan-4-yl)-1-(4-isopropylsulfonylphenyl) sulfonyl-indazole]
